Holding throughout (assay type): cell-based, human
One assay relates to JNK. The assay can be described thus: JNK in vitro kinase assay after transfection of 293 cells. The note with it: 293 cells cotransfected with TRAF2, 24 hours. As for the experimental part: Inhibition of TRAF2 (A) and TNFα (B, C) mediated JNK/SAPK activation by ectopic expression of KRC. (A) 293 T cells were transfected with 400 ng of TRAF2 and 2 μg of the indicated expression vector. Twenty-four hours after the transfection, the cells were harvested and lysed, and the endogenous JNK was precipitated with 5 μg of GST-cJUN (1-79) for 4 hours. JNK activity was determined by using GST-cJUN (1-79) as a substrate. (B,C) 293 T cells were cotransfected with vectors encoding HA-tagged JNK2 (500ng) and the indicated expression vector (2 μg). Twenty-four hours after the transfection cells were stimulated for 10 min with 10 ng/ml of TNFα and cells harvested at varying time points. JNK activity was assayed with GST-cJUN (1-79) as substrate.
Anti-HA or anti-FLAG immunoprecipitates were used for immune complex kinase assays that were performed at 30° C. for 30 min with 1 μg of substrate, 10 μCi of γ^32 P ATP, and 10 μM ATP in 30 μl of kinase buffer (20 mM HEPES, pH 7.4, 10 mM MgCl2, 25 mM β-glycerophosphate, 50 μm NA3VO4, and 50 μm DTT). The substrate was GST-c-JUN.

A further assay deals with IL-2. The assay can be described thus: IL-2 ELISA in stably transfected Jurkat clones. As to conditions: stable Jurkat clones, PMA and ionomycin. The method, then: In panel A Jurkat T cells were stably transfected with vector (pEF) or KRC expression plasmids. Stable clones were stimulated for 18 hours with PMA (50 ng/mL) plus ionomycin (2 μM) and IL-2 production was measured by ELISA. In panel B Primary CD4+ T cells were activated for 36 hours and subsequently transduced with control (RV), KRC, or KRC dominant negative (ZAS2) bicistronic GFP-expressing retroviruses. GFP-positive cells were sorted and stimulated for 24 hours with anti-CD3 or anti-CD3/anti-CD28 antibodies and IL-2 production was measured by ELISA. In panel C CD4 T cells from KRC +/+ or −/− mice were stimulated with anti-CD3 (1.0 μg/mL)/CD28 (0.5 μg/mL) antibodies for 24 hours and IL-2 production was measured by ELISA. In panel D CD4 T cells from KRC +/+ or −/− mice were stimulated with anti-CD3/CD28 antibodies for 72 hours in the presence of 200 U/mL human IL-2. IFNγ production was measured by ELISA.
In this example, increased IL-2 production in Jurkat T cells stably expressing KRC was measured by ELISA. IL-2 promoter activation requires antigen receptor engagement plus an accessory signal usually supplied by an antigen presenting cell (Jain, J., et al. (1995) Curr. Biol. 7:333-342). […] G418 drug-resistant Jurkat clones were expanded and analyzed for IL-2 secretion following activation.
(In general: An ELISA detects its analyte on a solid surface through an enzyme-linked reagent.)

The next assay relates to IL-2 promoter. The assay can be described thus: IL-2 promoter, NFAT/AP-1 and NFAT luciferase reporters and IL-2 RT-PCR in Jurkat cells. As for the experimental part:
FIG. 19(A) Stably transfected Jurkat T cell clones with vector (vec) or KRC (Jurkat-KRC) were stimulated with PMA (50 ng/mL) plus ionomycin (2 μM) for 6 hours. IL-2 mRNA abundance was determined by RT-PCR with tubulin as an internal control. FIG. 19(B) Jurkat cells were transiently transfected with an IL-2-Luciferase reporter along with Vector, KRC, or KRCtr (amino acids 204-1055) and, in all cases, a CMV-β-Gal reporter as an internal control (see text for details). 24 hours later, cells were stimulated with PMA plus ionomycin for 6 hours (upper panel) or Raji cells loaded with SEE for 8 hours (lower panel). Luciferase activity was determined and normalized for β-Galactosidase activity. FIG. 19(C) Jurkat cells were transiently transfected with NFAT/AP-1-, NFAT-, or AP-1-Luciferase reporters and treated as above.
For each transfection, 5×10^6 Jurkat cells were incubated with either IL2-Luc, NFAT/AP1-Luc or AP1-Luc reporter DNA together with pEF vector or pEF-KRC and CMV-βGAL as normalization control in 0.4 ml of RPMI and transfected by electroporation (260 v, 975 uF). Transfected cells were cultured at 37° C. for 20 h in RPMI 1640 medium (Gibco BRL) supplemented with 10% fetal bovine serum. Transfected cells were stimulated with PMA (50 ng/ml) and ionomycin (2 uM) for 6 hours prior to luciferase (Promega) and β-galactosidase assays (Galacton-PLUS substrate system, TROPIX, Inc).
Total RNA was isolated from T cells using TRIZOL™ reagent (Gibco/BRL). One (1) μg of total RNA was reverse transcribed using iScript cDNA Synthesis Kit (BioRad). PCR was performed with 2 uM of each primer (listed below) and 2.5 units of Platinum High fidelity enzyme (Invitrogen) according to the manufacturer.
Jurkat cells were transfected by electroporation and incubated for 20 h at 37° C. before stimulation for 8 h with the Raj i B cell line and Staphylococcal Enteroxin E (SEE) using Raji cells (1:1 with Jurkat cells) and SEE (200 ng/ml).
In general terms: In a reporter assay the amount or activity of a reporter protein is the signal.

As for “KRC: full-length KRC zinc finger protein (SEQ ID NO:2) overexpressed from an expression vector”, the “TRAF2-dependent JNK activation” value with JNK is “blocked JNK activation only partially”. Moreover, in the assay on IL-2, the IL-2 production result is recorded as “substantially greater amounts of IL-2”. Also, the “PMA/ionomycin induced activity of NFAT reporter” value in the assay on IL-2 promoter (Jurkat cells) is reported as “not further increased”. Further, the IL-2 promoter-luciferase induction result in the assay on IL-2 promoter (Jurkat cells, PMA plus ionomycin) is on record as “approximately 10 fold”. The “transactivation of multimerized NFAT/AP-1 and AP-1 elements” value in the assay with IL-2 promoter (Jurkat cells, PMA/ionomycin) is given as “enhanced PMA/ionomycin-induced transactivation”. Moreover, in the assay with IL-2 promoter (Jurkat cells, Raji cells plus SEE), the “IL-2 promoter activity increase” value is “approximately 10 fold”. The “IL-2 mRNA transcripts (RT PCR)” value with IL-2 promoter (stable Jurkat clones, activated) was “higher levels of IL-2 transcripts”.
